{
  "source": "paper PMC8333425",
  "about": "“Discovery of a dual Ras and ARF6 inhibitor from a GPCR endocytosis screen” (Nature Communications, 2021)",
  "system": "β-arrestin1 recruitment to B2R",
  "assay": "BRET recruitment of β-arrestin1 to B2R",
  "type": "cell-based, human",
  "method": "HEK293SL cells were seeded at a density of 7.5 × 10^5 cells per 100-mm dish and 24 h later, transiently transfected as such. For receptor internalization experiments, cells were transfected with 0.12 μg AT1R-RlucII, B2R-RlucII, or β2AR-RlucII and 0.48 μg of either rGFP-CAAX (to assess removal from the PM) or rGFP-FYVE (to assess accumulation in the endosomes). For β-arrestin recruitment assays, cells were transfected with 0.48 μg of receptor-YFP along with 0.12 μg of β-arrestin-RlucII. For β-arrestin/AP-2 binding experiments, cells were transfected with 1 μg Flag-AT1R, 1 μg β2-Adaptin-YFP, and 0.12 μg β-arrestin2-RlucII. For G protein activation, cells were transfected with 3 μg of sp-Flag-AT1R along with either 4.5 μg of the Gαq-polycistronic BRET sensor or 0.24 μg of the Gαi3-RlucII and 0.6 μg of GFP10-Gγ2 and Gβ1 sensors or 0.12 μg PKN-RBD-RlucII and 0.48 μg of rGFP-CAAX. For PKC activation, cells were transfected with 3 μg of sp-Flag-AT1R and 0.18 μg of the PKC sensor. For GTPase activation experiments, cells were transfected with 1 μg Flag-AT1R, 0.48 μg of rGFP-CAAX, and either 0.12 μg of GGA3-PBD-RlucII, PAK-CRIB-RlucII or Raf-RBD-RlucII. For biosensor validation experiments, cells were additionally transfected with 500 ng Flag-K-Ras-WT, Flag-K-Ras-G12V, Flag-K-Ras-SOS-CAAX, HA-ARF6-WT, HA-ARF6-T27N, Myc-Rac1-WT, Myc-Rac1-Q61L or Myc-Rac1-T17N. For PI3K/Akt activation experiments, cells were transfected with 0.48 μg of rGFP-CAAX and 0.12 μg of Akt (PH)-RlucII. After 18 h of transfection, the media was replaced and cells were divided for subsequent experiments. Cells were detached and seeded onto poly-L-ornithine-coated 96-well flat white bottom plates (BrandTech Scientific) at a density of 2.5 × 10^4 cells per well in media. The next day, cells were washed once with Tyrode’s buffer (140 mM NaCl, 2.7 mM KCl, 1 mM CaCl2, 12 mM NaHCO3, 5.6 mM D-glucose, 0.5 mM MgCl2, 0.37 mM NaH2PO4, 25 mM HEPES, pH 7.4) and left in Tyrode’s buffer. For kinetics of β-arrestin recruitment or β-arrestin binding to receptor and AP-2 experiments, cells were serum starved for 30 min, pretreated with 21 (50 µM) or Barbadin (100 µM) for 30 min, stimulated with 100 nM AngII or 1 µM BK and BRET signals were monitored at indicated times using a Victor X Light plate reader (PerkinElmer). Coelenterazine H (final concentration of 5 µM) was added 3–5 min prior to BRET measurements. Filter set was 460/80 nm and 535/30 nm for detecting the RlucII Renilla luciferase (donor) and YFP (acceptor) light emissions, respectively. The BRET ratio was determined by calculating the ratio of the light emitted by YFP over the light emitted by the RlucII. For G protein activation, cells were serum starved, pretreated with compounds for 30 min, stimulated with 100 nM AngII for 2 min (Gαq, Gαi3, and Rho sensors) or 5 min (PKC sensor). For the kinetics of GTPase and PI3K/Akt activation, cells were serum starved, pretreated with 21 (50 µM) or Wortmannin (200 nM) for 30 min, stimulated with ligand (100 nM AngII or 100 ng/ml EGF) and BRET signals were monitored at indicated times. For concentration-response curves, cells were serum-starved, pretreated with various concentrations of compounds for 30 min and stimulated with ligand (100 nM AngII, 1 µM BK, 10 µM Isoproterenol (Iso) or 100 ng/ml EGF) in Tyrode’s buffer for 30 min for receptor internalization, 10 min for ARF6, 2 min for Rac and Rho activation and 5 min for Ras activation and PI3K/Akt activation. BRET signals were monitored using a Synergy2 (BioTek) microplate reader and coelenterazine 400a (final concentrations of 5 µM) added 3–5 min prior to BRET measurements. Filter set was 410/80 nm and 515/30 nm for detecting the RlucII Renilla luciferase (donor) and rGFP/GFP10 (acceptor) light emissions, respectively. The BRET ratio was determined by calculating the ratio of the light emitted by rGFP/GFP10 over the light emitted by the RlucII.",
  "note": "Values joined by “and” are separate entries in the source; they are usually repeats but may differ in a detail not shown here. Equal values may be shown once. “Also recorded” adds a separate entry of the source.",
  "data": [
    {"smiles": "CC(C)C(=O)N1CCN(c2ccc(NC(=O)c3cc4ccccc4o3)cc2Cl)CC1", "note": "[Compound 21]", "values": [
      {"measurement": "β-arrestin1 recruitment to B2R at the PM", "setting": "50 μM", "value": "did not preclude; also recorded: lack of inhibition"},
      {"measurement": "BK-promoted BRET, Barr1", "setting": "Time 0 min", "value": 0},
      {"measurement": "BK-promoted BRET, Barr1", "setting": "Time 5 min, listed as Comp 21", "value": "0.04767 and 0.09406 and 0.08157"},
      {"measurement": "BK-promoted BRET, Barr1", "setting": "Time 10 min, listed as Comp 21", "value": "0.06518 and 0.1019 and 0.08421"},
      {"measurement": "BK-promoted BRET, Barr1", "setting": "Time 15 min, listed as Comp 21", "value": "0.06934 and 0.1045 and 0.09014"},
      {"measurement": "BK-promoted BRET, Barr1", "setting": "Time 30 min, listed as Comp 21", "value": "0.0673 and 0.09261 and 0.08457"},
      {"measurement": "BK-promoted BRET, Barr1", "setting": "Time 60 min, listed as Comp 21", "value": "0.06921 and 0.07361 and 0.07333"}
    ]}
  ]
}
